Measurements published in US20170197977A9, “COMPOSITIONS AND METHODS FOR TREATING NEURODEGENERATIVE DISEASE” (COGNITION THERAPEUTICS, INC., priority 2011, published 2017).
“Also recorded” adds a separate entry of the source.

Legend:
[1] = molecular target: T1, sigma 2 (agonist radioligand) (Rattus norvegicus, UniProt Q5U3Y7); test: Receptor binding assay, displacement of known radioligand; conditions: read-out: % Inhibition of Control
T1 sequence (Q5U3Y7 1-176): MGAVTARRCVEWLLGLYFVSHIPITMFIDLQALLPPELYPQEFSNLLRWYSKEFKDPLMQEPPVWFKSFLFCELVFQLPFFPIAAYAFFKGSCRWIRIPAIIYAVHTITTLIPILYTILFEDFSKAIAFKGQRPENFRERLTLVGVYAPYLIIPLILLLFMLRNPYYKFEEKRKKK

[2] = In vivo PK, plasma and brain levels; conditions: male, C57BL/6, mouse
Description: A plasma calibration curve was generated. […] Subcutaneous compound administration was accomplished by […]. Per oral administration was accomplished by gastric gavage. Intravenous administration was accomplished via jugular catheter. […] A brain calibration curve was generated.

[3] = system: Abeta oligomer-induced memory deficits in wt C57BL/6 mice; test: Contextual fear conditioning after intrahippocampal Abeta oligomer injection; type: in vivo, mouse
Protocol: Abeta oligomers (single 200 nanoMolar intrahippocampal injection) produced significant deficits in memory formation in 3-4 month old male wt C57BL/6 mice (N=16) compared to vehicle (N=18).
Several pharmaceutical companies use this same model in their discovery efforts. Contextual fear conditioning is an accepted model of associative memory formation which correlates to human cognitive function and specifically the creation of new (Delgado '06). Abeta oligomers are injected into the hippocampus of wild-type animals immediately before conditioning training and memory is assessed via freezing behavior after 24 hours. Details are provided in Example 9. […] This model system was chosen because intrahippocampal administration of oligomers allows rapid comparative assessment of compound activity and off-target toxicity. The results are shown graphically in FIG. 4.
Compound II was tested in an animal model of a memory-dependent behavioral task known as fear conditioning. The study protocol was designed based on published protocols (See e.g. Puzzo D, Privitera L, Leznik E, Fà M, Staniszewski A, Palmeri A, Arancio O. Picomolar amyloid-beta positively modulates synaptic plasticity and memory in hippocampus. J. Neurosci. 2008 Dec. 31; 28(53):14537-45.). The formation of contextual memories is dependent upon the integrity of medial temporal lobe structures such as the hippocampus. […]

[4] = system: hAPP (Swedish/London) transgenic mice; conditions: 0.5 mg/kg/day subcutaneous minipump, one month, 8 month old female mice
Protocol: In this study, rather than preventing deficits from occurring, deficits that were already established were treated. These studies were performed pursuant to a service contract by scientists who were blind to the experimental conditions. The compound was infused at 0.5 and 0.1 mg/kg/day for one month in 8 month old female mice via subcutaneous minipump and cognitive performance was tested in the Morris water maze, a test of hippocampal-based spatial learning and memory.
The swim speed was analyzed as part of the Morris measurements to determine if there were any motor or motivational deficits. Our vehicle is a 5% DMSO/5% Solutol, 90% saline mixture. The transgenic animals treated with a low dose (0.1 mg/kg/day) and a high dose (0.5 mg/kg/day) of compound. The average of three daily trials on each of four consecutive days were determined.
Escape latency measurements from the Morris water test were taken.
During the final four days of treatment, mice were tested to find the hidden platform in three trials/day. A computerized tracking system automatically quantified escape latency, or swim length.

[5] = system: SKOV-3 human ovarian cancer cell line; test: MTS tumor cell viability assay; type: cell-based; conditions: agonist/antagonist call relative to siramesine
Protocol: The cytotoxicity of compounds shown below was determined using the CellTiter96 Aqueous One Solution Assay (Promega, Madison, Wis.). […] The plate was read at 490 nm in a Victor3 plate reader (PerkinElmer Life and Analytical Sciences, Shelton, Conn.). The EC^50 value, defined as the concentration of the sigma ligand required to inhibit cell viability by 50% relative to untreated cells, was determined from the dose response curve for each cell line.

CYP2D6, CYP3A4, CYP2C19 = test: in vitro

**Q.** With COc1cc(CCC(C)NCc2ccc(C(F)(F)F)cc2)ccc1O (centres unmarked) [Compound II] as the molecule, how does the inhibition at 10 µM [1] read?
**A.** Its inhibition at 10 µM is 89%.

**Q.** And the “Brain concentration as multiple of the efficacious brain dose in vivo” value ([2]; iv, 10 mg/kg, 180 min)?
**A.** The value was 57 ×.

**Q.** And the “Amount in the brain as multiple of the efficacious dose” value ([2]; po, 3 h)?
**A.** The value was roughly 40 ×.

**Q.** What about the “Memory performance when dosed alone” value ([3]; no Abeta oligomer) of the same molecule?
**A.** Its value is “no effect of compounds alone”.

**Q.** What about the “Abeta oligomer-induced memory deficits (freezing behavior 24 hours post-training)” value ([3]; single intrahippocampal injection one hour prior to oligomers (2 microMolar, b68; 2 pmol dose)) of the same molecule?
**A.** Its value is “completely blocked oligomer-mediated memory deficits; also recorded: eliminated memory deficits”.

**Q.** What about the “Cognitive performance, escape latency” value [4] of the same molecule?
**A.** Its value is “capable of improving cognitive performance”.

**Q.** And the Action [5]?
**A.** Its Action is “Antagonist”.

**Q.** What about the inhibition at 10 µM (CYP2D6, CYP3A4, CYP2C19) of the same molecule?
**A.** Its inhibition at 10 µM is 46 to 73%.
